Reference: patent publication US10196363B2, “Dihydropyrimidin-2-one compounds and medical use thereof” (JAPAN TOBACCO INC., priority 2014, dated 2019)
Where two headings read alike, the source gives them in different places.

Legend:
[1] = biological target: T1, mouse RORγ (Mus musculus, UniProt P51450); assay: In vitro assay of inhibitory effect against RORγ transcriptional activity (GAL4-mRORγ LBD luciferase reporter gene assay in CHO cells); format: cell-based
T1 construct: mouse RORγ, from Ile251 to Lys516; expressed in transfected cells; host or cells: CHO cells (Chinese hamster ovary), transient co-transfection with pG5-Luc
T1 sequence (P51450 251-516): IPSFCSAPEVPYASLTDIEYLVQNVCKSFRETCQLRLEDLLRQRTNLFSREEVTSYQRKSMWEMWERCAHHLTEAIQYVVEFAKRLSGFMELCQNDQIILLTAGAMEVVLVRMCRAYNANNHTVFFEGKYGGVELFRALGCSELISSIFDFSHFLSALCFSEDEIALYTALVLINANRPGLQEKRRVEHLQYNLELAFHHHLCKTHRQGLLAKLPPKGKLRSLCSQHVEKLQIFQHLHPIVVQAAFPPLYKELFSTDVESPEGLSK
Outline: (§1)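 CHO cells, transient GAL4-RORγ LBD + pG5-Luc; cmpd 8 conc, 0.2% DMSO, 2 d, 37 °C, 5% CO2. SteadyLite luminescence, %-of-DMSO control (100%), EC50 by curve fit. Cytotoxic concentrations (resazurin) excluded.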

[2] = biological target: T2, human RORγ (Homo sapiens, UniProt P51449); assay: In vitro assay of inhibitory effect against RORγ transcriptional activity (GAL4-hRORγ LBD luciferase reporter gene assay in CHO cells); format: cell-based; conditions: for hRORγ luciferase activity, %-of-control: vehicle-control 0.2% DMSO alone = 100%
T2 construct: human RORγ, from Ser253 to Lys518; expressed in transfected cells; host or cells: CHO cells (Chinese hamster ovary), transient co-transfection with pG5-Luc
T2 sequence (P51449 253-518): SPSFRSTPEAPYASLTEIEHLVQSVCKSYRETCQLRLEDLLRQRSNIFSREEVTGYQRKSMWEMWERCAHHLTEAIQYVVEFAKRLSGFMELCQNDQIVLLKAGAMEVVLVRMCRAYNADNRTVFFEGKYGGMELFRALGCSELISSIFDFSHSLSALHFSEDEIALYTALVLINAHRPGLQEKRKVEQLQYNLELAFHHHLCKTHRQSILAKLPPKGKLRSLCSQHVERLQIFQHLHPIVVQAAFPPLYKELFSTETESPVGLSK
Outline: as §1

[3] = GAL4-mRORγ LBD luciferase reporter, CHO cells, read-out: LUC EC50 mRORγ
[4] = GAL4-hRORγ LBD luciferase reporter, CHO cells, read-out: LUC EC50 hRORγ
[5] = GAL4-mRORγ LBD / pG5-Luc in CHO cells, 2 days incubation
[6] = GAL4-hRORγ LBD / pG5-Luc in CHO cells, 2 days incubation
[7] = value in parentheses beside the > EC50 bound

SMILES | EC50 [1, 3] [nM] | EC50 [2, 4] [nM] | EC50 [1, 5] [nM] | EC50 [2, 6] [nM] | further results
CO[C@H]1C[C@H](N2C=C([C@H]3C[C@@H](C(=O)O)C3)[C@](C)(c3ccc(CCC(C)(C)C)c(Cl)c3)NC2=O)C1 [Example 200] | 23 | 14 | – | – | –
CC(C)C1=CN(C23CC(C(=O)O)(C2)C3)C(=O)N[C@]1(C)c1ccc(CCC(C)(C)C)c(Cl)c1 [Example 76] | – | – | 6360 | 3470 | –
CC(C)(C)CCc1ccc([C@]2(C)NC(=O)N([C@H]3C[C@H](C(=O)O)C3)C=C2[C@H]2C[C@@H](CO)C2)cc1Cl [Example 205] | 427 | 281 | – | – | –
CC(C)C1=CN(CCCC(=O)O)C(=O)NC1(C)c1ccc(OCC(C)(C)C)c(Cl)c1 (single isomer, unassigned) [Example 13] | – | – | 5930 | 6570 | –
CC(C)C1=CN(CCC(=O)O)C(=O)N[C@@]1(C)c1ccc(C2=CCCCC2)c(Cl)c1 [Example 134] | – | – | 27 | 70 | –
CC(C)C1=CN(CC2(C(=O)O)CC2)C(=O)N[C@@]1(C)c1ccc(CCC(C)(C)C)c(Cl)c1 [Example 98] | – | – | 18 | 13 | –
CC(C)C1=CN(CCC(=O)O)C(=O)N[C@@]1(C)c1ccc(CC2CCC2)c(Cl)c1 [Example 291] | 138 | 1080 | – | – | –
CC(C)C1=CN(CCC(=O)O)C(=O)N[C@@]1(C)c1ccc(C2CCC(C)(C)CC2)c(Cl)c1 [Example 118] | – | – | 17 | 19 | –
CC(C)C1=CN(CCC(=O)O)C(=O)N[C@@]1(C)c1ccc(C2=CCC(C)(C)CC2)c(Cl)c1 [Example 116, 3-{(S)-4-[3-chloro-4-(4,4-dimethyl-cyclohex-1-enyl)-phenyl]-5-isopropyl-4-methyl-2-oxo-3,4-dihydro-2H-pyrimidin-1-yl}-propionic Acid] | – | – | 22 | 15 | –
CC(C)C1=CN([C@H]2CC(=O)N(CC(=O)O)C2)C(=O)N[C@@]1(C)c1ccc(CCC(C)(C)C)c(Cl)c1 [Example 162] | – | – | 275 | 172 | –
COCC(C)C1=CN(CCC(=O)O)C(=O)N[C@@]1(C)c1ccc(CCC(C)(C)C)c(Cl)c1 (single isomer, unassigned) [Example 305] | 6 | 3 | – | – | –
COc1cc(N2C=C(C(C)C)[C@](C)(c3ccc(CCC(C)(C)C)c(Cl)c3)NC2=O)ccc1C(=O)O [Example 226, 4-{(S)-4-[3-Chloro-4-(3,3-dimethyl-butyl)-phenyl]-5-isopropyl-4-methyl-2-oxo-3,4-dihydro-2H-pyrimidin-1-yl}-2-methoxy-benzoic Acid] | 20 | 17 | – | – | –
CC(C)C1=CN(CCC(=O)O)C(=O)N[C@@]1(C)c1ccc(CCC(C)(C)CO)c(Cl)c1 [Example 260] | 492 | 439 | – | – | –
CC(C)C1=CN(CCC(=O)O)C(=O)N[C@@]1(C)c1ccc([C@H]2C[C@@H](CC(C)(C)C)C2)c(Cl)c1 [Example 309] | 71 | > 3200 | – | – | hRORγ luciferase activity, %-of-control ([2]; value in parentheses beside the EC50 bound): (63%)
CC(C)(C)CCc1ccc(C2NC(=O)N(CCCC(=O)O)C=C2C(C)(C)C)cc1Cl (single isomer, unassigned) [Example 10] | – | – | 17 | 9 | –
CC(C)C1=CN(c2ccc(C(=O)O)cc2)C(=O)N[C@@]1(C)c1cc(F)c(OCC(C)(C)C)c(Cl)c1 [Example 193] | 19 | 18 | – | – | –
CC1=CN(CCCC(=O)O)C(=O)N[C@]1(C)c1ccc(CCC(C)(C)C)c(Cl)c1 [Example 60] | – | – | 12400 | 15300 | –
CC(C)(C)COc1ccc(C2NC(=O)NC=C2C2CC(C(=O)O)C2)cc1Cl (racemic) [Example 62] | – | – | 520 | 665 | –
CC(C)C1=CN(CCC(=O)O)C(=O)N[C@@]1(C)c1ccc([C@H]2C[C@@H](C(C)(C)C)C2)c(Cl)c1 [Example 302] | 30 | 28 | – | – | –
CC(C)C1=CN([C@H]2C[C@](C)(C(=O)O)C2)C(=O)N[C@]1(C)c1ccc(CCC(C)(C)C)c(Cl)c1 [Example 111] | – | – | 481 | 405 | –
CC(C)C1=CN(CCCC(=O)O)C(=O)N[C@]1(C)c1ccc(CCC2CCC2)c(Cl)c1 [Example 109] | – | – | > 8000 | > 8000 | mRORγ luciferase activity, %-of-control ([1]; value in parentheses beside the > EC50 bound, vehicle-control 0.2% DMSO alone = 100%): (67%); hRORγ luciferase activity, %-of-control [2, 7]: (60%)
CC(C)C1=CN(c2ccc(C(=O)O)cc2)C(=O)N[C@@]1(C)c1ccc(COC(C)(C)C)c(Cl)c1 [Example 203] | 21 | 30 | – | – | –

SMILES | EC50 [1, 3] [nM] | EC50 [2, 4] [nM] | EC50 [1, 5] [nM] | EC50 [2, 6] [nM] | further results
COCCC1=CN(c2ccc(C(=O)O)cc2)C(=O)N[C@@]1(C)c1ccc(CCC(C)(C)C)c(C(F)(F)F)c1 [Example 323] | 23 | 51 | – | – | –
CC(C)C1=CN(CCC(=O)O)C(=O)N[C@@]1(C)c1cc(F)c(OCc2ccccc2)c(Cl)c1 [Example 161] | – | – | 47 | 154 | –
COC[C@H]1C[C@@H](C2=CN(CCC(=O)O)C(=O)N[C@@]2(C)c2ccc(CCC(C)(C)C)c(Cl)c2)C1 [Example 206] | 117 | 81 | – | – | –
CC(C)C1=CN(CCC(=O)O)C(=O)N[C@@]1(C)c1ccc(CCc2ccccc2)c(Cl)c1 [Example 144] | – | – | 37 | > 512 | hRORγ luciferase activity, %-of-control [2, 7]: (60%)
CC(C)C1=CN(CCCC(=O)O)C(=O)NC1(C)c1ccc(OCC(C)(C)C)c(Cl)c1 (single isomer, unassigned) [Example 12] | – | – | 17 | 23 | –
CC(C)=Cc1ccc(C2(C)NC(=O)N(CCCC(=O)O)C=C2C(C)C)cc1 (racemic) [Example 188] | – | – | 1130 | 2610 | –
CC(C)C1=CN(C2CC3(CC(C(=O)O)C3)C2)C(=O)N[C@@]1(C)c1ccc(CCC(C)(C)C)c(Cl)c1 (single isomer, unassigned) [Example 232] | 19 | 15 | – | – | –
C[C@@]1(c2ccc(OCCC3CCC3)c(Cl)c2)NC(=O)N(C23CC(C(=O)O)(C2)C3)C=C1C1CC(F)(F)C1 [Example 357] | 29 | 34 | – | – | –
CC(C)C1=CN(CCCCC(=O)O)C(=O)N[C@@]1(C)c1ccc(CCC(C)(C)C)c(Cl)c1 [Example 48] | – | – | 16 | 12 | –
CC(C)C1=CN(CCC(C)C(=O)O)C(=O)NC1(C)c1ccc(OCC(C)(C)C)c(Cl)c1 (mixture of isomers) [Example 21] | – | – | 24 | 19 | –
CCC1=CN(CCCC(=O)O)C(=O)N[C@@]1(C)c1ccc(CCC(C)(C)C)c(Cl)c1 [Example 69] | – | – | 17 | 20 | –
CC1=C(C(C)C)C(C)(c2ccc(CCC(C)(C)C)c(Cl)c2)NC(=O)N1CCCC(=O)O (racemic) [Example 90] | – | – | 18 | 15 | –
COCCC(C)(C)CC1=CN(c2ccc(C(=O)O)cc2)C(=O)N[C@@]1(C)c1ccc(CCC(C)(C)C)c(Cl)c1 [Example 209] | 74 | 51 | – | – | –
CC(C)(C)CCc1ccc([C@@]2(C)NC(=O)N([C@H]3C[C@H](C(=O)O)C3)C=C2C2CC(F)(F)C2)cc1Cl [Example 95] | – | – | 5680 | > 3200 | hRORγ luciferase activity, %-of-control [2, 7]: (66%)
C[C@@]1(c2ccc(OCCC3CC3)c(Cl)c2)NC(=O)N(c2ccc(C(=O)O)cc2)C=C1C1CC(F)(F)C1 [Example 350] | 52 | 109 | – | – | –
CC(C)C1=CN([C@H]2C[C@@H](C(=O)O)C2)C(=O)N[C@@]1(C)c1ccc(CCC(C)(C)C)c(Cl)c1 [Example 46] | – | – | 16 | 17 | –
CC(C)N1C=C(CCC(=O)O)[C@](C)(c2ccc(CCC(C)(C)C)c(Cl)c2)NC1=O [Example 230] | 76 | 225 | – | – | –
CC(C)C1=CN(C2CCCC2C(=O)O)C(=O)N[C@@]1(C)c1ccc(CCC(C)(C)C)c(Cl)c1 (single isomer, unassigned) [Example 243] | 543 | 1220 | – | – | –
CC(C)C1=CN(c2ccc(C(=O)O)cc2)C(=O)N[C@@]1(C)c1ccc(CCC(C)(C)C)c(C(F)(F)F)c1 [Example 271, 4-{(S)-4-[4-(3,3-Dimethyl-butyl)-3-trifluoromethyl-phenyl]-5-isopropyl-4-methyl-2-oxo-3,4-dihydro-2H-pyrimidin-1-yl}-benzoic Acid] | 47 | 43 | – | – | –
COC(=O)[C@H]1C[C@H](N2C=C([C@H]3C[C@@H](CO)C3)[C@](C)(c3ccc(CCC(C)(C)C)c(Cl)c3)NC2=O)C1 (single isomer, unassigned) [Example 312] | 538 | 248 | – | – | –
CC(C)C1=CN(CCC(=O)O)C(=O)N[C@@]1(C)c1cc(F)c(OCC(C)(C)C)c(Cl)c1 [Example 164] | – | – | 11 | 18 | –
